The source of these data is patent publication US20080003215A1, “Use of pre-dissolved pristinamycin-type and polyether ionophore type antimicrobial agents in the production of ethanol” (priority 2006, published 2008).

For data set [1], the system named is Yeast #1. The data set is described as follows: Solvent compatibility with yeast corn mash fermentation, Yeast #1. Conditions: Yeast #1, corn mash. Here is the method:
(§1) Dialkylsulfoxides and alkyl pyrrolidones, where the alkyl groups are independently C1 to C4, are particularly preferred. Dimethylsulfoxide (DMSO) and N-Methyl-2-Pyrrolidone (M-Pyrol or NMP) compatibility with yeast corn mash fermentations were evaluated with two yeasts (Yeast#1 and Yeast#2) commercially used in the fuel ethanol industry. Concentrations of 0 to 1200 ppm of either solvent were added at the beginning of dry-milled corn-mash fermentations along with either yeast.
(§2) Sterile saccharified 26% wt. %/v corn mash was prepared using substantially the same procedure described in Example 2. To each of 6 pre-sterilized Celstir™ fermentors (Wheaton Instruments, Millville, N.J.), 500 g sterile mash was aseptically added. The fermentors were temperature controlled to 32° C. using circulating water baths (Haake D8;G, Berlin, Germany) to pump water through the jackets of the Celstir fermentors. Magnetic stirrers (IKA-Lavortechnik, Staufen, Germany) were used to mix the fermentors at approximately 200 RPM. […] Then, to each fermentator was added 1) 1 ml of 0.2 μm filter-sterilized Urea stock solution (8 mM urea in fermentors); 2) 1 ml filter sterilized aqueous DMSO (Gaylord Chemical, CAS#67-68-5) or aqueous M-Pyrol (ISP, CAS#872-50-) solutions; and 3) 1.027 g Yeast#1 or Yeast#2 commercial active dry yeasts in 18 ml sterile water.
Samples (22 ml) were taken at 0, 6, 12, 24, 36, and 48 h and placed on ice to prevent growth. An 11 ml aliquot of each sample was serially diluted in 0.1% w/v sterile peptone water, and microbiologically plated onto MRS agar plates in duplicate. All plates were incubated for 48 h at 30° C. in an anaerobic CO2 incubation chamber, and manually enumerated for viable Lactobacilli. The remaining 11 ml aliquot of each sample was centrifuged (10K RPM, 4° C., 20 minutes) in a Sorvall RC-5C centrifuge. The liquid supernatant was then passed through a 0.2 μm membrane filter to remove any particulates and frozen for future analysis. Lactic acid, glycerol, ethanol, acetic acid, and glucose concentrations were determined by HPLC analysis. The samples were thawed and diluted to the required extent with Milli-Q water. Aliquots of the diluted samples (100 μl) were each mixed with an equal volume of 2% w/v boric acid (internal standard), and injected into a Biorad HPX-87H Aminex™ column equilibrated at 40° C. The eluent was 5 mM sulfuric acid flowing at a rate of 0.7 ml/min. The components were detected by a differential refractometer (Model 4210, Waters Chromatographic Division, Milford, Mass.) and the subsequent data processed by the supplied Waters Millenium32 software. All fermentations were performed in duplicate.

Data set [2] has as its system Yeast #2. Kind of data set: Solvent compatibility with yeast corn mash fermentation, Yeast #2. Here is the method: as §1, §2
Samples (22 ml) were taken at 0, 6, 12, 24, 36, and 48 h and placed on ice to prevent growth. An 11 ml aliquot of each sample was serially diluted in 0.1% w/v sterile peptone water, and microbiologically plated onto MRS agar plates in duplicate. All plates were incubated for 48 h at 30° C. in an anaerobic CO2 incubation chamber, and manually enumerated for viable Lactobacilli. […] Lactic acid, glycerol, ethanol, acetic acid, and glucose concentrations were determined by HPLC analysis. […] The components were detected by a differential refractometer (Model 4210, Waters Chromatographic Division, Milford, Mass.) and the subsequent data processed by the supplied Waters Millenium32 software. […]

The subject of data set [3] is humans. Conditions: cited from earlier work.

Regarding `C[S+](C)[O-]` [DMSO, Dimethylsulfoxide], the “Ethanol production (inhibition)” value in data set [1] (0 to 1200 ppm solvent) is listed as “did not inhibit ethanol production”. Besides, the “Yeast viability and stress (glycerol)” value in data set [1] (1000 ppm solvent, 48 hours of exposure) is given as “does not appear to affect the viability of Yeast #1 or stress Yeast #1”. The “Yeast performance (viability, glycerol, ethanol)” value in data set [2] (Yeast #2, corn mash, 0 to 1200 ppm solvent) was “no adverse effect on yeast performance”.

Consider `CN1CCCC1=O` [NMP, N-Methyl-2-Pyrrolidone], for which the Ethanol production in data set [1] (1000 ppm solvent (control 8.1%)) amounted to 7.8%; in data set [2] (Yeast #2, corn mash, 1000 ppm solvent, 48 hours (control 10%)) it was 9.1%. Also, the Yeast viability result in data set [1] (solvent concentrations above 400 ppm) is on record as “slight decline in yeast viability”. The Ethanol concentration trend result in data set [2] (Yeast #2, solvent concentrations >400 ppm) is reported as “consistent trend towards lower concentrations of ethanol”.

Regarding `CCCCOC(=O)C(C)O` (stereo not drawn) [n-butyl lactate], the “Toxic concentration in air” value in data set [3] (humans, in air) was “about 4 ppm”. Moreover, the Toxicity classification result in data set [3] (intraperitoneal route) is on record as “classified as a poison by intraperitoneal route”.
